Patent US20250152585A1, “PHARMACEUTICAL COMPOUND” (Duke Street Bio Limited, priority 2022, published 2025)
Like-named read-outs stand apart in the source and are kept apart here.

Assays:
[1] = molecular target: T1, N-terminally FLAG-tagged PARP2 (amino acids 1-583) (Homo sapiens, UniProt Q9UGN5); assay: PARP2 probe displacement HTRF assay; type: binding; conditions: binned Kd
T1 construct: N-terminally FLAG-tagged PARP2 (amino acids 1-583)
Description: Data analysis was performed identical as for PARP1.

[2] = molecular target: T2, full length N-terminally FLAG-tagged PARP1 (Homo sapiens, UniProt P09874); assay: PARP1 probe displacement HTRF assay; conditions: for Kd: binned Kd; for Selectivity: PARP1 over PARP2, ratio Kd (PARP2)/Kd (PARP1)
[3] = molecular target: T2, full length N-terminally FLAG-tagged PARP1; assay: PARP1 biochemical DELFIA assay (auto-PARylation); parameters: recombinant full length human N-terminally FLAG-tagged PARP1
[4] = binned IC50, PARP1 biochemical DELFIA assay
[5] = read-out: PARP1 HTRF, PARP1 probe displacement HTRF
[6] = read-out: PARP1 HTRF, probe displacement HTRF
[7] = binned IC50, biochemical auto-PARylation assay
[8] = PARP1 HTRF, probe displacement HTRF

T2 sequence (P09874 whole entry): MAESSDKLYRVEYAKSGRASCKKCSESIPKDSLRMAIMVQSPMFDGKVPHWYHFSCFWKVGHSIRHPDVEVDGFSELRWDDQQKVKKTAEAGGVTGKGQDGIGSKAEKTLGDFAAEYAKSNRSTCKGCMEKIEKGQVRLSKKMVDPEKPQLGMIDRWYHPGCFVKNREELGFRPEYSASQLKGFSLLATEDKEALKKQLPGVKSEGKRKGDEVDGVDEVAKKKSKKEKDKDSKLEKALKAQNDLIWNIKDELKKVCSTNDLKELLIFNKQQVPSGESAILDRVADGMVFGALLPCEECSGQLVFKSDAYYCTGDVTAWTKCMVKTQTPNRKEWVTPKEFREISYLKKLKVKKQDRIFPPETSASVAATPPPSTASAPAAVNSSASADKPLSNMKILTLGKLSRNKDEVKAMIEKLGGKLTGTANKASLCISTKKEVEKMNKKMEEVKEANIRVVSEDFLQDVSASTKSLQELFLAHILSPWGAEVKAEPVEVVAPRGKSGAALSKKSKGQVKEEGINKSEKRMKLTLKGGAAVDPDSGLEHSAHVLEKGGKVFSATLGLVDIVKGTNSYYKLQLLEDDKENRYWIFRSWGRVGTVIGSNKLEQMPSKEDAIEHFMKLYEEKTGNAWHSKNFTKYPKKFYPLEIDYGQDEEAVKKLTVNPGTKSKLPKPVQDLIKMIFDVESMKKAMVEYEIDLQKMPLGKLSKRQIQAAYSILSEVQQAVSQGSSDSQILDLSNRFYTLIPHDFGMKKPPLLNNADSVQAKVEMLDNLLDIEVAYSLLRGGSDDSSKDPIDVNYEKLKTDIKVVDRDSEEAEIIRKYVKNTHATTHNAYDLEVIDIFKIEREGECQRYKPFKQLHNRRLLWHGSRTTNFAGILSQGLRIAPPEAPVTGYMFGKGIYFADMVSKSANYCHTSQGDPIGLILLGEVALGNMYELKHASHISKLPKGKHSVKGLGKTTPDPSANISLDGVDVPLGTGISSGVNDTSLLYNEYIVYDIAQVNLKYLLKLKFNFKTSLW
T1 sequence (Q9UGN5 whole entry, the tested form may be a part): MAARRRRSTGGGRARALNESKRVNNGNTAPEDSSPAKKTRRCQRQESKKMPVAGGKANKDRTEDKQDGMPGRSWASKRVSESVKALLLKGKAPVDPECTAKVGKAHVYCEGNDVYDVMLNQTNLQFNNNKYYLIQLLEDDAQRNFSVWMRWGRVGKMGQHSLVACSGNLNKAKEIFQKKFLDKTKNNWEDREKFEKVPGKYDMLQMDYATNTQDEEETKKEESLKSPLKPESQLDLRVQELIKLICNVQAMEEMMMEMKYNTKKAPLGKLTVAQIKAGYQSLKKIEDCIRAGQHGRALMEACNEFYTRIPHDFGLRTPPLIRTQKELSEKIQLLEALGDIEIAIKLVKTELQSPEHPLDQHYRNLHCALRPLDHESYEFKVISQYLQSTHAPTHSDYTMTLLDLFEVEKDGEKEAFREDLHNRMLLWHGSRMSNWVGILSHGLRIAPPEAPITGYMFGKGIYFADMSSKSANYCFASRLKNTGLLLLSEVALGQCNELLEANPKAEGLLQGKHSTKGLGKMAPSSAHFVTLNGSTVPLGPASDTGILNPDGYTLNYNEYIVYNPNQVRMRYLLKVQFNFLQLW

Row | Structure (SMILES) | Kd ([1]; PARP2 probe displacement HTRF) [nM] | Kd ([2]; PARP1 HTRF, PARP1 probe displacement HTRF) [nM] | Selectivity ([2]; probe displacement HTRF) | IC50 [3, 4] [nM] | Kd [2, 5] [nM] | Kd ([1]; probe displacement HTRF) [nM] | Kd [2, 6] [nM] | IC50 [3, 7] [nM] | Kd [2, 8] [nM]
1 | CNC(=O)c1ccc(N2CCC(N3CCC(c4cc5ccc(F)cc5c(=O)[nH]4)C3)CC2)cn1 (racemic) [Compound 154rac, 5-(4-(3-(7-fluoro-1-oxo-1,2-dihydroisoquinolin-3-yl)pyrrolidin-1-yl)piperidin-1-yl)-N-methylpicolinamide] | 10 to 100 | < 10 | + (+ indicates a value of 10 to less than 50) | < 10 | – | – | – | – | –
2 | CNC(=O)c1ccc(N2CCC(N3CCC(c4nc5c(C)cn(C)c5c(=O)[nH]4)C3)CC2)cn1 (racemic) [Compound 163rac] | 100 to 1000 | – | +++ (+++ indicate a value of at least 100) | < 10 | < 10 | – | – | – | –
3 | CNC(=O)c1ccc(N2CCC(N3CCC(c4nc5onc(C)c5c(=O)[nH]4)C3)CC2)cn1 (single isomer, unassigned) [Compound 149a] | > 10000 | – | + (+ indicates a value of 10 to less than 50) | 100 to 1000 | 100 to 1000 | – | – | – | –
4 | CCNC(=O)c1ccc(N2CCC(N3CCC(c4ccc(CC)c(=O)[nH]4)C3)CC2)c(F)n1 (racemic) [Compound 264rac] | – | – | +++ (+++ indicate a value of at least 100) | – | – | 100 to 1000 | < 10 | < 10 | –
5 | CNC(=O)c1cc(C)c(N2CCC(N3CCC(c4nc5ccccc5c(=O)[nH]4)C3)CC2)c(C)n1 (single isomer, unassigned) [Compound 224b] | – | – | − (− indicates a value of less than 10) | – | – | 1000 to 10000 | 100 to 1000 | 100 to 1000 | –
6 | CNC(=O)c1ccc(N2CCC(N3CCOC(c4nc5ccccc5c(=O)[nH]4)C3)CC2)cn1 (single isomer, unassigned) [Compound 58b] | > 10000 | – | ++ (++ indicates a value of 50 to less than 100) | 10 to 100 | 10 to 100 | – | – | – | –
7 | CCc1ccc(C2CC(=O)N(C3CCN(c4ccc(C(=O)NC)nc4)CC3)C2)[nH]c1=O (racemic) [Compound 406rac] | – | – | +++ (+++ indicate a value of at least 100) | – | – | > 10000 | < 10 | < 10 | –
8 | CNC(=O)c1ccc(N2CCC(N3CCC(c4nc5c(F)cc(F)cc5c(=O)[nH]4)C3)CC2)cn1 (single isomer, unassigned) [Compound 181b] | 100 to 1000 | – | +++ (+++ indicate a value of at least 100) | < 10 | < 10 | – | – | – | –
9 | CNC(=O)c1ccc(N2CCC(N3CCCC(c4ccc(OC)c(=O)[nH]4)C3)CC2)cn1 (single isomer, unassigned) [Compound 147a] | > 10000 | – | − (− indicates a value of less than 10) | 1000 to 10000 | 1000 to 10000 | – | – | – | –
10 | O=C(NC1CC1)c1ccc(N2CCC(N3CCC(c4cc5cccc(F)c5c(=O)[nH]4)C3)CC2)c(F)n1 (single isomer, unassigned) [Compound 349a] | – | – | +++ (+++ indicate a value of at least 100) | – | – | > 10000 | < 10 | < 10 | –
11 | CNC(=O)c1ccc(N2CCC(N3CCC(c4ccc(OC)c(=O)[nH]4)C3)CC2)cn1 (single isomer, unassigned) [Compound 148a] | > 10000 | – | − (− indicates a value of less than 10) | 1000 to 10000 | > 10000 | – | – | – | –
12 | CNC(=O)c1ccc(N2CCC(N3CCCC(c4nc5ccncc5c(=O)[nH]4)C3)CC2)cn1 (single isomer, unassigned) [Compound 93b] | > 10000 | – | − (− indicates a value of less than 10) | 1000 to 10000 | 1000 to 10000 | – | – | – | –
13 | CCNC(=O)c1ccc(N2CCC(N3CCC(c4nc5ccccc5c(=O)[nH]4)C3)CC2)cn1 (single isomer, unassigned) [Compound 111b] | 100 to 1000 | – | +++ (+++ indicate a value of at least 100) | < 10 | < 10 | – | – | – | –
14 | O=C(NC1CC1)c1ccc(N2CCC(N3CCC(c4cc5ncc(F)cc5c(=O)[nH]4)C3)CC2)cn1 (single isomer, unassigned) [Compound 372b] | – | – | +++ (+++ indicate a value of at least 100) | – | – | 10 to 100 | < 10 | < 10 | –
15 | CNC(=O)c1ccc(N2CCC(N3CCC(c4cc5cnccc5c(=O)[nH]4)C3)CC2)cn1 (racemic) [Compound 204rac] | > 10000 | – | +++ (+++ indicate a value of at least 100) | < 10 | < 10 | – | – | – | –
16 | CNC(=O)c1ccc(N2CCC(N3CCCC(c4nc5onc(C(F)(F)F)c5c(=O)[nH]4)C3)CC2)cn1 (racemic) [Compound 191rac] | > 10000 | – | + (+ indicates a value of 10 to less than 50) | 100 to 1000 | 100 to 1000 | – | – | – | –

Row | Structure (SMILES) | Kd ([1]; PARP2 probe displacement HTRF) [nM] | Kd ([2]; PARP1 HTRF, PARP1 probe displacement HTRF) [nM] | Selectivity ([2]; probe displacement HTRF) | IC50 [3, 4] [nM] | Kd [2, 5] [nM] | Kd ([1]; probe displacement HTRF) [nM] | Kd [2, 6] [nM] | IC50 [3, 7] [nM] | Kd [2, 8] [nM]
17 | CNC(=O)c1ccc(N2CCC(N3CCCC(c4nc5sc(C)c(C)c5c(=O)[nH]4)C3)CC2)cn1 (single isomer, unassigned) [Compound 199a] | 100 to 1000 | – | +++ (+++ indicate a value of at least 100) | < 10 | < 10 | – | – | – | –
18 | N#Cc1ccc(N2CCC(N3CCC(c4nc5ccccc5c(=O)[nH]4)C3)CC2)cc1 (single isomer, unassigned) [Compound 34a] | 100 to 1000 | – | − (− indicates a value of less than 10) | 10 to 100 | 10 to 100 | – | – | – | –
19 | CNC(=O)c1ccc(N2CCC(N3CCC(c4ccc(COC)c(=O)[nH]4)C3)CC2)cn1 (single isomer, unassigned) [Compound 207b] | > 10000 | – | − (− indicates a value of less than 10) | 100 to 1000 | 100 to 1000 | – | – | – | –
20 | CNC(=O)c1ccc(N2CCC(N3CCC(c4nc5c(C(F)(F)F)cn(C)c5c(=O)[nH]4)C3)CC2)cn1 (racemic) [Compound 288rac] | – | – | +++ (+++ indicate a value of at least 100) | – | – | 1000 to 10000 | 10 to 100 | 10 to 100 | –
21 | CNC(=O)c1ccc(N2CCC(N3CCC(c4cc5cccc(F)c5c(=O)[nH]4)C3)CC2)cc1F (single isomer, unassigned) [Compound 281a] | – | – | + (+ indicates a value of 10 to less than 50) | – | – | 10 to 100 | < 10 | < 10 | –
22 | N#Cc1nc(C(=O)NC2CC2)ccc1N1CCC(N2CC3(c4nc5ccc(F)cc5c(=O)[nH]4)CC2C3)CC1 [Compound 388] | – | – | +++ (+++ indicate a value of at least 100) | – | – | 100 to 1000 | – | < 10 | < 10
23 | CC(=O)Nc1ccc(N2CCC(N3CCC(c4cc5ccccc5c(=O)[nH]4)C3)CC2)cc1 (single isomer, unassigned) [Compound 289b] | – | – | + (+ indicates a value of 10 to less than 50) | – | – | 100 to 1000 | 10 to 100 | < 10 | –
24 | CCc1ccc(C2CCN(C3CCN(c4ccc(OC(F)F)nc4)CC3)C2)[nH]c1=O (single isomer, unassigned) [Compound 382b] | – | – | +++ (+++ indicate a value of at least 100) | – | – | 100 to 1000 | < 10 | < 10 | –
25 | CNC(=O)c1ccc(N2CCC(N3CCC(c4cc5c(c(=O)[nH]4)CCC(=O)N5)C3)CC2)cn1 (single isomer, unassigned) [Compound 309a, 5-(4-(3-(2,5-dioxo-1,2,3,4,5,6-hexahydro-1,6-naphthyridin-7-yl)pyrrolidin-1-yl)piperidin-1-yl)-N-methylpicolinamide] | – | – | +++ (+++ indicate a value of at least 100) | – | – | > 10000 | – | < 10 | < 10
26 | CNC(=O)c1ccc(N2CCC(N3CCC(c4ncc(C)c(=O)[nH]4)C3)CC2)cn1 (single isomer, unassigned) [Compound 35b] | > 10000 | – | +++ (+++ indicate a value of at least 100) | 10 to 100 | 10 to 100 | – | – | – | –
27 | CNC(=O)c1ccc(N2CCC(N3CCC(c4[nH]c(=O)c5cc(F)ccc5c4F)C3)CC2)cn1 (single isomer, unassigned) [Compound 401b] | – | – | + (+ indicates a value of 10 to less than 50) | – | – | 10 to 100 | < 10 | < 10 | –
28 | CNC(=O)c1ccc(N2CCC(N3CCC(c4cc5ccccc5c(=O)[nH]4)C3)CC2)cn1 (single isomer, unassigned) [Compound 91b] | 100 to 1000 | – | +++ (+++ indicate a value of at least 100) | < 10 | < 10 | – | – | – | –
29 | N#Cc1ccc(N2CCC(N3CCC(c4cc5ccc(F)cc5c(=O)[nH]4)C3)CC2)c(F)c1 (single isomer, unassigned) [Compound 385a] | – | – | +++ (+++ indicate a value of at least 100) | – | – | 1000 to 10000 | < 10 | < 10 | –
30 | CNC(=O)c1ncc(N2CCC(N3CCC(c4cc5ccc(F)cc5c(=O)[nH]4)C3)CC2)c(C(F)(F)F)n1 (single isomer, unassigned) [Compound 266b] | – | – | +++ (+++ indicate a value of at least 100) | – | – | > 10000 | 10 to 100 | 10 to 100 | –
31 | CNS(=O)(=O)c1ccc(N2CCC(N3CCC(c4cc5ccccc5c(=O)[nH]4)C3)CC2)cc1 (single isomer, unassigned) [Compound 346a] | – | – | +++ (+++ indicate a value of at least 100) | – | – | 1000 to 10000 | < 10 | < 10 | –
32 | CCc1ccc(C2CCN(C3CCN(c4ccc(C(=O)NC5CC5)nc4)CC3)C2)[nH]c1=O (single isomer, unassigned) [Compound 338b] | – | – | ++ (++ indicates a value of 50 to less than 100) | – | – | 1000 to 10000 | 10 to 100 | 10 to 100 | –
